For three molecules, IC50 results are on record in patent EP4818174A1, “ERIBULIN DERIVATIVE AND ANTIBODY-DRUG CONJUGATE THEREOF, AND MEDICAL USE THEREOF” ([…] CO., LTD., priority 2024, dated 2025).

Structures can show the parent of a compound that is named as a salt. Where two headings read alike, the source gives them in different places.

The IC50 is the point on the concentration scale where inhibition reaches its midpoint.

Holding throughout (assay): Inhibitory activity on other cancer cell lines (similar method)
What all share (format): cell-based

In one test the test system is 22Rv1. Particulars: Homo sapiens. The protocol: (§1) On the day of the test, the cells were digested with 0.25% trypsin (Gibco, 25200-072), filtered with a sieve with a pore size of 40 µm, diluted with the corresponding medium until a cell density reached 1 × 10^4 cells/mL, and inoculated onto a 96-well white cell culture plate (Beyotime, FCP968), 100 µL of cells were added per well, the culture plate was put in a 37°C incubator (Thermo 311) containing 5% CO2, and the cells were further incubated for 24 hours. On Day 2, to-be-tested samples were prepared into a stock solution at a final concentration of […] with DMSO (Sigma, D1650), then diluted with the corresponding medium until a final concentration reached 200 nM, and then subjected to four-fold serial dilutions, to prepare solutions at a total of 9 concentrations. 100 µL of the diluted sample was added to a 96-well plate, the plate was put in a 37°C incubator containing 5% CO2, and the cells were further incubated for 144 hours. The cell culture plate was removed, 100 µL of cell viability assay agent (CellTiter-Glo® Luminescent Cell Viability Assay, Promega, G7571) was added to each well, and the reaction solution allowed to react in the dark for 5 minutes at room temperature. Luminescence values were read by a microplate reader (TECAN SPARK) and data were processed with Graphpad Prism 7 software.
(§2) Table 2: Inhibitory IC50 Values of Compounds PE-21EK and PE-AM4 in the Present Invention Against Other Cancer Cell Lines

The next test has as its system A549. The settings on record: Homo sapiens. The protocol:
as §1, §2

The test system of the next test is DU145. The settings on record: Homo sapiens. The protocol: as §1, §2
Another test concerns H1975. The settings on record: Homo sapiens. As to the method:
as §1, §2

The test system of another test is HCC1937. Particulars: Homo sapiens. As to the method:
as §1, §2

A further test relates to HS578T. The settings on record: Homo sapiens, Hs-578T, read-out: Inhibitory IC50 values. The protocol: as §1, §2
In a further test the test system is IGROV-1. The settings on record: Homo sapiens. The protocol:
as §1, §2

The subject of a further test is Lncap cell. The settings on record: Homo sapiens, read-out: Inhibitory IC50 values. The protocol: as §1, §2
In the next test the test system is MDA-MB-453. The settings on record: Homo sapiens. The protocol:
as §1, §2

The next test concerns MDAMB231. The settings on record: Homo sapiens. As to the method: as §1, §2
The next test deals with MIA PaCa-2. Particulars: Homo sapiens. As to the method: as §1, §2
The subject of another test is NCI-H1650. Particulars: Homo sapiens. The protocol: as §1, §2
A further test has as its system NSCLC. Particulars: read-out: Inhibitory IC50 values. The protocol:
as §1, §2

In a further test the test system is Renal cancer. The settings on record: read-out: Inhibitory IC50 values. As to the method:
as §1, §2

The next test deals with SW620. The settings on record: Homo sapiens. As to the method:
as §1, §2

The mark [1] stands for this setting: 22Rv1, cell source Prostate cancer, unit inferred, read-out: Inhibitory IC50 values.
Where [2] appears, read: A549, cell source NSCLC, unit inferred, read-out: Inhibitory IC50 values.
Where [3] appears, read: DU-145, DU145, cell source Prostate cancer, unit inferred, read-out: Inhibitory IC50 values.
The mark [4] stands for this setting: NCI-H1975, H1975, cell source NSCLC, unit inferred, read-out: Inhibitory IC50 values.
The mark [5] stands for this setting: HCC1937, cell source Breast cancer, unit inferred, read-out: Inhibitory IC50 values.
The mark [6] stands for this setting: HS578T, cell source Breast cancer, unit inferred.
[7] abbreviates: IGROV-1, cell source Ovarian cancer, unit inferred, read-out: Inhibitory IC50 values.
Setting [8] is: Lncap cell, cell source Prostate cancer, unit inferred.
Where [9] appears, read: MDA-MB-453, cell source Breast cancer, unit inferred, read-out: Inhibitory IC50 values.
Where [10] appears, read: MDA-MB-231, MDAMB231, cell source Breast cancer, unit inferred, read-out: Inhibitory IC50 values.
[11] abbreviates: MIA PaCa-2, cell source Pancreatic cancer, unit inferred, read-out: Inhibitory IC50 values.
The mark [12] stands for this setting: NCI-H1650, cell source NSCLC, unit inferred, read-out: Inhibitory IC50 values.
The mark [13] stands for this setting: SW-620, SW620, cell source Colon cancer, unit inferred, read-out: Inhibitory IC50 values.

Turning to `C=C1C[C@@H]2CC[C@@]34C[C@H]5O[C@H]6[C@@H](O3)[C@H]3O[C@H](CC[C@@H]3O[C@H]6[C@H]5O4)CC(=O)C[C@@H]3[C@@H](OC)[C@@H](CC(=O)CNC(=O)OCCCCCO)O[C@H]3C[C@H]3O[C@@H](CC[C@@H]1O2)C[C@@H](C)C3=C` [PE-21EK], the half-inhibitory concentration (IC50) was determined as 0.125 nM in the test with 22Rv1 (setting [1]); 0.194 nM in the test with A549 (setting [2]); 0.501 nM with DU145 (setting [3]); 0.0708 nM in the test with H1975 (setting [4]); 0.104 nM in the test with HCC1937 (setting [5]); 0.0207 nM in the test with HS578T (setting [6]). Moreover, the IC50 is 0.289 nM in the test on IGROV-1 (setting [7]); 0.123 nM with Lncap cell (setting [8]); 0.0846 nM in the test on MDA-MB-453 (setting [9]); 0.218 nM with MDAMB231 (setting [10]); 0.158 nM in the test on MIA PaCa-2 (setting [11]); 0.262 nM with NCI-H1650 (setting [12]). For the same molecule, the IC50 with NSCLC worked out at 0.184 nM; in the test with Renal cancer it was 0.102 nM; with SW620 (setting [13]) it was 0.0221 nM.

Consider `C=C1C[C@@H]2CC[C@@]34C[C@H]5O[C@H]6[C@@H](O3)[C@H]3O[C@H](CC[C@@H]3O[C@H]6[C@H]5O4)CC(=O)C[C@@H]3[C@@H](OC)[C@@H](CC(=O)N4CC(CO)C4)O[C@H]3C[C@H]3O[C@@H](CC[C@@H]1O2)C[C@@H](C)C3=C` [PE-AM4], for which the IC50 in the test on 22Rv1 (setting [1]) is 0.741 nM; in the test on A549 (setting [2]), 4.92 nM; in the test with DU145 (setting [3]), 0.686 nM; with H1975 (setting [4]) it was 0.728 nM; with HCC1937 (setting [5]) it was 0.647 nM; in the test with HS578T (setting [6]) it was 0.276 nM. For the same molecule, the IC50 worked out at 0.623 nM in the test on IGROV-1 (setting [7]); 0.457 nM in the test on Lncap cell (setting [8]); 0.151 nM in the test with MDA-MB-453 (setting [9]); 1.08 nM with MDAMB231 (setting [10]); 1.23 nM in the test on MIA PaCa-2 (setting [11]); 1.56 nM with NCI-H1650 (setting [12]). For the same molecule, the values for the IC50 in the test on NSCLC, in the test with Renal cancer and in the test with SW620 (setting [13]) were 3.13 nM, 3.47 nM and 1.3 nM, respectively.

Turning to `C=C1C[C@@H]2CC[C@@]34C[C@H]5O[C@H]6[C@@H](O3)[C@H]3O[C@H](CC[C@@H]3O[C@H]6[C@H]5O4)CC(=O)C[C@@H]3[C@@H](OC)[C@@H](C[C@H](O)CN)O[C@H]3C[C@H]3O[C@@H](CC[C@@H]1O2)C[C@@H](C)C3=C` [PE-E, eribulin mesylate, reference compound], the IC50 was 0.618 nM in the test on 22Rv1 (22Rv1, read-out: Inhibitory IC50 values); 4.17 nM in the test on A549 (A549, read-out: Inhibitory IC50 values); 1.68 nM in the test with DU145 (DU-145, read-out: Inhibitory IC50 values); 0.505 nM with H1975 (NCI-H1975, read-out: Inhibitory IC50 values); 2.85 nM in the test with HCC1937 (HCC1937, read-out: Inhibitory IC50 values); 0.188 nM with HS578T. Further, the concentration for half-maximal inhibition (IC50) was 0.439 nM in the test with IGROV-1 (IGROV-1, read-out: Inhibitory IC50 values); 1.3 nM in the test on Lncap cell (LNCaP); 19.3 nM in the test with MDA-MB-453 (MDA-MB-453, read-out: Inhibitory IC50 values); 0.805 nM in the test on MDAMB231 (MDA-MB-231, read-out: Inhibitory IC50 values); 0.668 nM in the test with MIA PaCa-2 (MIA PaCa-2, read-out: Inhibitory IC50 values); 2.35 nM with NCI-H1650 (NCI-H1650, read-out: Inhibitory IC50 values). The IC50 with NSCLC was 0.649 nM; in the test on Renal cancer it was 0.755 nM; in the test with SW620 (SW-620, read-out: Inhibitory IC50 values), 0.419 nM.
